Experimental data: US20240376435A1, “KIDNEY ORGANOID AND METHOD FOR PRODUCING SAME” (OTSUKA PHARMACEUTICAL CO., LTD., priority 2021, published 2024)

Tests used:
[1] = test system: proximal tubule marker genes; test: Expression level of proximal tubule marker genes in kidney organoid (LTL MACS, quantitative PCR); assay type: cell-based, human; settings: for expression levels of almost all proximal tubule marker genes: agonist singly at 1 μM, eight days from day 15, among Control, CP1 and 9cisRA1 groups; for expression levels of maturation markers of proximal tubular cells: ACE2, AQP6, CUBN
Method: (§1) The kidney organoid was transferred to a centrifuge tube, and a cell dissociation solution (DPBS (+), 5 mg/mL Bacillus Licheniformis Protease (Sigma-Aldrich), 125 U/mL DNasc (Roche)) was added to the centrifuge tube. Up to 12 organoids were placed in one centrifuge tube. The centrifuge tube was incubated at 6° C. for 30 minutes. During the 30-minute incubation, pipetting was performed every five minutes to prepare a cell suspension containing cells separated from the organoids. To 1 mL of the obtained cell suspension, 4 mL of ice-cold diluted solution A (DPBS (−), 0.5% FBS, 2 mM EDTA, 125 U/mL DNase) was added. The centrifuge tube containing the diluted cell suspension was centrifuged at 300 rcf and 4° C. for 10 minutes, and the supernatant was removed. An ice-cooled diluted solution A was added to the precipitate for resuspension. The cell suspension was centrifuged again and the precipitate was resuspended in the diluted solution A. The obtained cell suspension was transferred to a tube with a 35 μm filter (Falcon) and passed through the filter to prepare a cell suspension containing single cells.
LTL-biotin (1:50) was added to the prepared cell suspension containing single cells and incubated at 4° C. for 15 minutes. Thereafter, the cell suspension was centrifuged at 300 rcf and 4° C. for five minutes, and the supernatant was removed. An ice-cooled diluted solution A was added to the precipitate for resuspension. Centrifuging the cell suspension and obtaining a cell suspension from the precipitate were performed two more times. Anti-biotin microBeads Ultra-Pure was added to the obtained cell suspension in the diluted solution A and incubated at 4° C. for 15 minutes. Thereafter, the cell suspension was centrifuged at 300 ref and 4° C. for five minutes, and the supernatant was removed. The ice-cooled diluted solution A was added to the precipitate for resuspension. This operation was repeated two more times. From the obtained cell suspension in the diluted solution A, cells to which LTL binds (also referred to as LTL-binding cells or LTL-positive cells) were obtained by a MACS method. More specifically, the cell suspension was applied to an MS column (Miltenyi Biotec B.V. & Co. KG) fixed in a magnetic field, and LTL-positive proximal tubular cells were obtained as a positive fraction.
(§2) Total RNA was extracted from the obtained cell suspension containing LTL-positive proximal tubular cells with a Purelink RNA micro kit (Thermofisher Scientific Inc.). Using total RNA obtained as a template, cDNA synthesis was performed using PrimeScript™ RTmastermix (Perfect Real Time) (Takara Bio Inc.). The synthesized cDNA was quantified by real-time PCR with TB Green® Premix Ex Taq™ II (Tli RNase H Plus) (TaKaRa Bio Inc.). Expression level analysis was performed using this quantitative PCR.
On the 15th day of differentiation induction, the induction medium C was replaced with STEMdiff APEL2 medium (0.3 μM CP775146, 1 μM 9-cis retinoic acid, 1% PFHM II, Antibiotic-Antimycotic), and the obtained early kidney organoids were further cultured for eight days (until the 23rd day of differentiation induction).
On the 23rd day of differentiation induction, the degree of maturation of the proximal tubule was examined. The degree of maturation was determined based on the expression level of maturation markers of proximal tubular cells in the kidney organoid by the MACS method with LTL.
In the step C, CP1 group was prepared by culturing, for eight days, the kidney organoid on the 15th day of differentiation induction in STEMdiff APEL2 medium (1 μM CP775146, 1% PFHM II, Antibiotic-Antimycotic), which is a medium obtained by removing retinoic acid from the induction medium C. […]

[2] = test system: PPARA downstream gene group; test: Expression level of PPARA downstream gene group in kidney organoid (LTL MACS, quantitative PCR); assay type: cell-based, human; settings: agonist singly at 1 μM, eight days from day 15; among Control, CP1 and 9cisRA1 groups
Method: as §1, with “The cell suspension was centrifuged again and the precipitate was resuspended in the diluted solution A. The obtained cell suspension was transferred to a tube with a 35 μm filter (Falcon) and passed through the filter to prepare a cell suspension containing single cells.” left out
as §2, with “Using total RNA obtained as a template, cDNA synthesis was performed using PrimeScript™ RTmastermix (Perfect Real Time) (Takara Bio Inc.).” left out, “PCR. […]” for “PCR.”

Structure (SMILES)	expression levels of almost all proximal tubule marker genes [1]	expression levels of almost all PPARA downstream gene groups [2]	further results
CC1=C(/C=C/C(C)=C\C=C\C(C)=C\C(=O)O)C(C)(C)CCC1 [9-cis retinoic acid]	No significant difference	No significant difference	–
CC(C)c1ccc(CC(=O)N2CCC[C@@H](c3cccc(OC(C)(C)C(=O)O)c3)C2)cc1 [CP775146]	No significant difference	No significant difference	–
CCC(=O)NC[C@H](Cc1ccc(OCCc2nc(-c3ccccc3)oc2C)cc1)N/C(C)=C\C(=O)c1ccc(C(F)(F)F)cc1 [GW6471]	–	–	expression levels of maturation markers of proximal tubular cells ([1]; Comparative Example 1, PPARA antagonist at a predetermined concentration in step C, vs control, UGT2A3, AZGP1, BHMT, LRP2, ABCB1, APOA1, APOC3, FABP1): significantly decreased; expression levels of SLC39A4 and CYP27A1 ([1]; Comparative Example 1, PPARA antagonist in step C, vs control): tendency for the expression levels of SLC39A4 (FIG. 12c) and CYP27A1 (FIG. 12l) to decrease; expression levels of maturation markers of proximal tubular cells ([1]; Comparative Example 2, RXR antagonist in step C, vs control, UGT2A3, AZGP1, SLC39A4, BHMT, LRP2, ABCB1, APOA1, APOC3, CYP27A1, FABP1): significantly decreased
Cc1cccc(Nc2cc(Cl)nc(SCC(=O)O)n2)c1C [pirinic acid]	–	–	expression of proximal tubule markers ([1]; Example 9, pirinic acid alone in step C, n=3): increased
